Experimental data: patent US20140135310A1, “SULPHONAMIDE DERIVATIVES OF ALICYCLIC AMINES FOR THE TREATMENT OF CENTRAL NERVOUS SYSTEM DISEASES” (Adamed Sp. z o.o., priority 2011, published 2014)
pKi: −log10 of the molar value.

Experiments:
[1] = target: T1, 5-HT2C receptor (Homo sapiens, UniProt P28335); assay: Radioligand binding assay, serotoninergic 5-HT2C receptors; settings: test compound 1×10^−6 M
T1 construct: expressed in transfected cells; host or cells: HEK-293 cells
T1 sequence (P28335 33-458): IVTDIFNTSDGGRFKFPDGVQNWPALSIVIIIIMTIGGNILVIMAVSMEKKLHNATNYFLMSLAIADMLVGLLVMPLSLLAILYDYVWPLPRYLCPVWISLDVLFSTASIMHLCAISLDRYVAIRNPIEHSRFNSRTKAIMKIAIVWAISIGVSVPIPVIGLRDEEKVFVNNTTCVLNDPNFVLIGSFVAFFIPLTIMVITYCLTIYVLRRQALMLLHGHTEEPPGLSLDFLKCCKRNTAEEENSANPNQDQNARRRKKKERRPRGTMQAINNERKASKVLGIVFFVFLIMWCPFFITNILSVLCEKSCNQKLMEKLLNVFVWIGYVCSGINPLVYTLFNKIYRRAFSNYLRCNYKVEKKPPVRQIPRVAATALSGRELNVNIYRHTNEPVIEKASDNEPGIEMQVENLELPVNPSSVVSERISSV

[2] = target: T2, 5-HT6 receptor (Homo sapiens, UniProt P50406); assay: Radioligand binding assay, serotoninergic 5-HT6 receptors; settings: for inhibition at 1 µM / 5-HT6 [%]: binding assay result in %, Table 5a; for pKi: read-out: Inhibition constants Ki, 5-HT6;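 for 5-HT6 [%]: test compound at 1 µM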
T2 construct: purchased PerkinElmer
Procedure, shortened: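 Values are Ki from Cheng–Prusoff, taking IC50 from Hill nonlinear regression of competition curves and KD from a Scatchard plot. Specific binding was total minus binding with excess unlabelled ligand. Radioligand displacement was detected by scintillation counting, and data were also reported as percent of control specific binding.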

[3] = target: T3, 5-HT1A receptor (rat hippocampus) (Rattus norvegicus, UniProt P19327); assay: Radioligand binding assay, serotoninergic 5-HT1A receptors; settings: binding assay result in %, Table 5a;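 note: test compound at 1 µM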
T3 construct: hippocampus; from tissue; host or cells: rat hippocampus
T3 sequence (P19327 1-422): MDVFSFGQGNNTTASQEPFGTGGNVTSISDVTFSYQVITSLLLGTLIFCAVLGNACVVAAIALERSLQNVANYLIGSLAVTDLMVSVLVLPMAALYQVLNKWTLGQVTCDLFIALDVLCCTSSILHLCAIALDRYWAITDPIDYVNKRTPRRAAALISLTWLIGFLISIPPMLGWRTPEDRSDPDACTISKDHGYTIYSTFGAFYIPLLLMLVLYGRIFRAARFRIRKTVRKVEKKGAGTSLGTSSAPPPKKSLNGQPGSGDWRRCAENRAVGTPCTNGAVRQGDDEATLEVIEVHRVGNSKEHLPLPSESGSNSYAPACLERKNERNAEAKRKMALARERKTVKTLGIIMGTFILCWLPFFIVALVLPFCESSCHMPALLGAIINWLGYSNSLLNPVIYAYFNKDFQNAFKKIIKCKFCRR

[4] = target: dopaminergic receptors D3 (Homo sapiens, UniProt P35462); assay: Radioligand binding assay, dopaminergic D3 receptors; settings: test compound 1×10^−6 M
Procedure, shortened: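 Scintillation read-out. Specific = total − nonspecific (excess cold ligand). Data as % of control specific binding / % inhibition; IC50 by Hill fit; Ki = IC50/(1+L/KD), KD from Scatchard plot.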

[5] = system: α1 adrenergic receptors (rat cerebral cortex); assay: Radioligand binding assay, adrenergic α1 receptors; settings: test compound 1×10^−6 M
Procedure, shortened: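 Values derive from radioligand displacement, with non-specific binding defined by excess cold ligand and detection by scintillation. Hill-fit IC50s were converted to Ki via Cheng-Prusoff using Scatchard-derived Kd; percent inhibition of control specific binding also reported.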

[6] = target: T4, M3 muscarinic receptors (Homo sapiens, UniProt P20309); assay: Radioligand binding assay, muscarinic M3 receptors; settings: test compound 1×10^−6 M
T4 construct: expressed in transfected cells; host or cells: CHO cells
Procedure, shortened: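 Radioligand competition binding, detected by scintillation counting; non-specific binding defined with excess unlabelled ligand. Results given as % inhibition of control specific binding; IC50 from Hill-equation fit of competition curves, Ki via Cheng-Prusoff with radioligand KD from Scatchard plot.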

Chain of dopaminergic receptors D3 (P35462 whole entry): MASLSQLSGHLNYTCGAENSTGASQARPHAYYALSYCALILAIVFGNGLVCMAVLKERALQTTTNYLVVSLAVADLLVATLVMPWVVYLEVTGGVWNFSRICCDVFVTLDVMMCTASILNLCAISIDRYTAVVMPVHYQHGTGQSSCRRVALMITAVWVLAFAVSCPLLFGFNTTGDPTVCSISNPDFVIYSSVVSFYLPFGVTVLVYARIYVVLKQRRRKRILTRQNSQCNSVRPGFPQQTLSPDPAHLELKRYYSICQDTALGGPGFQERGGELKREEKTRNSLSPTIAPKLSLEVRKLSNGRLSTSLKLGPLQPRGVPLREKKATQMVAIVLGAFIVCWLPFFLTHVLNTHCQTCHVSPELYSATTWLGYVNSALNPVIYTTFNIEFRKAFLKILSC
T2 sequence (P50406 whole entry): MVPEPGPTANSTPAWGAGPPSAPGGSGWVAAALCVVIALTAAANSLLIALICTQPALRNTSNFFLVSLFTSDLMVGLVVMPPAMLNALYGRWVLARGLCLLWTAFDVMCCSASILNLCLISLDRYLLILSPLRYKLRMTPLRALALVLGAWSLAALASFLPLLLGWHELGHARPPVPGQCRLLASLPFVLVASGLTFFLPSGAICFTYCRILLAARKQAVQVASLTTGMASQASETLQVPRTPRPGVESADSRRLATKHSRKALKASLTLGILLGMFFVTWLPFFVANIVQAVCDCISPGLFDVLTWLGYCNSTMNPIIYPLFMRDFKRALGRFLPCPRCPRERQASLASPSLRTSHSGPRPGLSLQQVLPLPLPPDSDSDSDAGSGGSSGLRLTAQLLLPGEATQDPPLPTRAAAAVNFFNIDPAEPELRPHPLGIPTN
T4 sequence (P20309 whole entry): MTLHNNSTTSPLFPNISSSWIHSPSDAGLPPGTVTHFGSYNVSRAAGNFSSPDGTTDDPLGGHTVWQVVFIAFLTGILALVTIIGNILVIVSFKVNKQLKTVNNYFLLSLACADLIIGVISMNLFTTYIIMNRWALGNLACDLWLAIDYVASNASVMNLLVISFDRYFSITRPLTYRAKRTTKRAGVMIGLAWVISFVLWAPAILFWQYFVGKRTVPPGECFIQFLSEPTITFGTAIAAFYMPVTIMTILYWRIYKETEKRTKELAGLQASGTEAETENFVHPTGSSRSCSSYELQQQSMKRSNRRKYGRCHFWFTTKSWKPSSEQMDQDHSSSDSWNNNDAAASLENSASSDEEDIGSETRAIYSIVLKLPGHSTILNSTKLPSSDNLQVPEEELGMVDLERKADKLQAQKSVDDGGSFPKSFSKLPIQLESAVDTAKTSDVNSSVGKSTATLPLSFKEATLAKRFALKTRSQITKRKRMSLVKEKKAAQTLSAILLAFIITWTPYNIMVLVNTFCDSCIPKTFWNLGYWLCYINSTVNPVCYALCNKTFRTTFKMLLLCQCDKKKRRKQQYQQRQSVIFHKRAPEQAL

## O=S(=O)(NC1CCN(CCCc2noc3cc(F)ccc23)C1)c1cc2ccccc2o1 (stereo not drawn) [Compound 216, N-[1-[3-(6-Fluoro-1,2-benzoxazol-3-yl)propyl]pyrrolidin-3-yl]benzofuran-2-sulphonamide]
[1]
  inhibition at 1 µM: 62%
[2]
  inhibition at 1 µM: 97%
[3]
  inhibition at 1 µM: 35%
[4]
  inhibition at 1 µM: 85%
[5]
  α1 [%]: 84%
[6]
  inhibition at 1 µM: 28%

## O=S(=O)(NC1CN(CCOc2cccc3c2OCCO3)C1)c1cccc2ccccc12 [Compound 94, N-[1-[2-(2,3-Dihydro-1,4-benzodioxan-8-yloxy)ethyl]azetidin-3-yl]-naphthalene-1-sulphonamide]
[1]
  5-HT2C [%]: 91%
[2]
  5-HT6 [%]: 65%
[3]
  5-HT1A [%]: 98%
[4]
  D3 [%]: 105%
[5]
  α1 [%]: 87%
[6]
  M3 [%]: 1%

## O=S(=O)(N[C@@H]1CCN(CCCc2noc3cc(F)ccc23)C1)c1cc2ccc(Cl)cc2s1 [Compound 198, 6-Chloro-N-[(3R)-1-[3-(6-fluoro-1,2-benzoxazol-3-yl)propyl]pyrrolidin-3-yl]benzothiophene-2-sulphonamide]
[1]
  inhibition at 1 µM: 86%
[2]
  inhibition at 1 µM: 97%
  pKi: 8.07
[3]
  inhibition at 1 µM: 45%
[4]
  inhibition at 1 µM: 97%
[5]
  α1 [%]: 76%
[6]
  inhibition at 1 µM: 37%

## Cc1cc(S(=O)(=O)N[C@@H]2CCN(CCCc3noc4cc(F)ccc34)C2)c(C)s1 [Compound 222, N-[(3R)-1-[3-(6-Fluoro-1,2-benzoxazol-3-yl)propyl]pyrrolidin-3-yl]-2,5-dimethyl-thiophene-3-sulphonamide]
[1]
  inhibition at 1 µM: 65%
[2]
  inhibition at 1 µM: 94%
[3]
  inhibition at 1 µM: 72%
[4]
  inhibition at 1 µM: 74%
[5]
  α1 [%]: 92%
[6]
  inhibition at 1 µM: 18%

## O=S(=O)(NCC1CN(CCCc2noc3cc(F)ccc23)C1)c1ccc(-c2ccccc2)cc1 [Compound 135, N-[[1-[3-(6-Fluoro-1,2-benzoxazol-3-yl)propyl]azetidin-3-yl]methyl]-4-phenyl-benzenesulphonamide]
[1]
  inhibition at 1 µM: 86%
[2]
  inhibition at 1 µM: 92%
[3]
  inhibition at 1 µM: 77%
[4]
  inhibition at 1 µM: 94%
[5]
  α1 [%]: 88%
[6]
  inhibition at 1 µM: 19%

## Cc1c(S(=O)(=O)NC2CCN(CCCc3noc4cc(F)ccc34)C2)sc2ccc(Cl)cc12 (stereo not drawn) [Compound 29, 5-Chloro-N-[1-[3-(6-fluoro-1,2-benzoxazol-3-yl)propyl]pyrrolidin-3-yl]-3-methyl-benzothiophene-2-sulphonamide]
[1]
  inhibition at 1 µM: 28%
[2]
  inhibition at 1 µM: 92%
[3]
  inhibition at 1 µM: 70%
[4]
  inhibition at 1 µM: 85%
[5]
  α1 [%]: 18%
[6]
  inhibition at 1 µM: 30%

## Cc1cc(S(=O)(=O)NC2CCN(CCCc3noc4cc(F)ccc34)C2)c(C)s1 (stereo not drawn) [Compound 221, N-[1-[3-(6-Fluoro-1,2-benzoxazol-3-yl)propyl]pyrrolidin-3-yl]-2,5-dimethyl-thiophene-3-sulphonamide]
[1]
  inhibition at 1 µM: 81%
[2]
  inhibition at 1 µM: 92%
[3]
  inhibition at 1 µM: 67%
[4]
  inhibition at 1 µM: 92%
[5]
  α1 [%]: 85%
[6]
  inhibition at 1 µM: 12%

## O=S(=O)(NC1CCN(CCCc2noc3cc(F)ccc23)C1)c1ccc(Cl)c(F)c1 (stereo not drawn) [Compound 11, 4-Chloro-3-fluoro-N-[1-[3-(6-fluoro-1,2-benzoxazol-3-yl)propyl]-pyrrolidin-3-yl]benzene-sulphonamide]
[1]
  inhibition at 1 µM: 27%
[2]
  inhibition at 1 µM: 94%
[3]
  inhibition at 1 µM: 60%
[4]
  inhibition at 1 µM: 49%
[5]
  α1 [%]: 70%
[6]
  inhibition at 1 µM: 3%

## O=S(=O)(N[C@@H]1CCN(CCCc2noc3cc(F)ccc23)C1)c1csc2ccccc12 [Compound 224, N-[(3R)-1-[3-(6-Fluoro-1,2-benzoxazol-3-yl)propyl]pyrrolidin-3-yl]benzothiophene-3-sulphonamide]
[1]
  inhibition at 1 µM: 71%
[2]
  inhibition at 1 µM: 99%
  pKi: 8.40
[3]
  inhibition at 1 µM: 76%
[4]
  inhibition at 1 µM: 87%
[5]
  α1 [%]: 89%
[6]
  inhibition at 1 µM: 25%

## O=S(=O)(NCC1CCN(CCOc2cccc3c2OCCO3)C1)c1cccc(F)c1 (stereo not drawn) [Compound 298, N-[[1-[2-(2,3-Dihydro-1,4-benzodioxin-5-yloxy)ethyl]pyrrolidin-3-yl]-methyl]-3-fluoro-benzenesulphonamide]
[1]
  inhibition at 1 µM: 37%
[2]
  inhibition at 1 µM: 40%
[3]
  inhibition at 1 µM: 97%
[4]
  inhibition at 1 µM: 35%
[5]
  α1 [%]: 77%
[6]
  inhibition at 1 µM: 22%

## Cc1cc(S(=O)(=O)N[C@H]2CCN(CCCc3noc4cc(F)ccc34)C2)c(C)s1 [Compound 223, N-[(3S)-1-[3-(6-Fluoro-1,2-benzoxazol-3-yl)propyl]pyrrolidin-3-yl]-2,5-dimethyl-thiophene-3-sulphonamide]
[1]
  inhibition at 1 µM: 65%
[2]
  inhibition at 1 µM: 94%
[3]
  inhibition at 1 µM: 49%
[4]
  inhibition at 1 µM: 57%
[5]
  α1 [%]: 86%
[6]
  inhibition at 1 µM: 25%

## O=S(=O)(NC1CN(CCOc2cccc3[nH]ccc23)C1)c1cccc(Cl)c1 [Compound 47, 3-Chloro-N-[1-[2-(1H-indol-4-yloxy)ethyl]azetidin-3-yl]benzene-sulphonamide]
[1]
  inhibition at 1 µM: 33%
[2]
  inhibition at 1 µM: 45%
[3]
  inhibition at 1 µM: 98%
[4]
  inhibition at 1 µM: 97%
[5]
  α1 [%]: 71%
[6]
  inhibition at 1 µM: -8%

## Cc1c(S(=O)(=O)N[C@@H]2CCN(CCCc3noc4cc(F)ccc34)C2)sc2ccc(Cl)cc12 [Compound 204, 5-Chloro-N-[(3R)-1-[3-(6-fluoro-1,2-benzoxazol-3-yl)propyl]pyrrolidin-3-yl]-3-methyl-benzothiophene-2-sulphonamide]
[1]
  inhibition at 1 µM: 87%
[2]
  inhibition at 1 µM: 97%
  pKi: 8.16
[3]
  inhibition at 1 µM: 71%
[4]
  inhibition at 1 µM: 96%
[5]
  α1 [%]: 76%
[6]
  inhibition at 1 µM: 17%

## CC1(C)Cc2cccc(OCCN3CCC(NS(=O)(=O)c4ccc5ccccc5c4)CC3)c2O1 [Compound 110, N-[1-[2-[(2,2-Dimethyl-3H-benzofuran-7-yl)oxy]ethyl]-4-piperidine]naphthalene-2-sulphonamide]
[1]
  5-HT2C [%]: 85%
[2]
  5-HT6 [%]: −60%
[3]
  5-HT1A [%]: 95%
[4]
  D3 [%]: 73%
[5]
  α1 [%]: 45%
[6]
  M3 [%]: −7%

## O=S(=O)(NC1CCN(CCOc2cccc3[nH]ccc23)CC1)c1ccccc1 [Compound 55, N-[1-[2-(1H-Indol-4-yloxy)ethyl]-4-piperidine]benzenesulphonamide]
[1]
  5-HT2C [%]: 30%
[2]
  5-HT6 [%]: 3%
[3]
  5-HT1A [%]: 96%
[4]
  D3 [%]: 93%
[5]
  α1 [%]: 51%
[6]
  M3 [%]: −1%

## O=S(=O)(NC1CCN(CCCc2noc3cc(F)ccc23)C1)c1ccc2ccccc2c1 (stereo not drawn) [Compound 21, N-[1-[3-(6-Fluoro-1,2-benzoxazol-3-yl)propyl]pyrrolidin-3-yl]naphthalene-2-sulphonamide]
[1]
  inhibition at 1 µM: 71%
[2]
  inhibition at 1 µM: 95%
[3]
  inhibition at 1 µM: 66%
[4]
  inhibition at 1 µM: 96%
[5]
  α1 [%]: 95%
[6]
  inhibition at 1 µM: -11%

## O=S(=O)(NCC1CCN(CCOc2cccc3c2OCCO3)C1)c1ccc(F)cc1 (stereo not drawn) [Compound 300, N-[[1-[2-(2,3-Dihydro-1,4-benzodioxin-5-yloxy)ethyl]pyrrolidin-3-yl]-methyl]-4-fluoro-benzenesulphonamide]
[1]
  inhibition at 1 µM: 34%
[2]
  inhibition at 1 µM: 38%
[3]
  inhibition at 1 µM: 99%
[4]
  inhibition at 1 µM: 30%
[5]
  α1 [%]: 83%
[6]
  inhibition at 1 µM: -2%
